# In US20240116985A1, “STAPLED PEPTIDES AND METHODS THEREOF” (priority 2020, published 2024):
# Read-outs that look alike come from different tables or passages of the source.
# Assays:
# [1] = biological target: T1, full-length beta-Catenin (Uniprot ID P35222) (Homo sapiens, UniProt P35222); experiment: Fluorescence polarization IC50 (beta-catenin / 5FAM-TCF4 10-53 competition); assay type: binding
# T1 construct: 10 nM full-length beta-Catenin (Uniprot ID P35222)
# T1 sequence (P35222 1-781): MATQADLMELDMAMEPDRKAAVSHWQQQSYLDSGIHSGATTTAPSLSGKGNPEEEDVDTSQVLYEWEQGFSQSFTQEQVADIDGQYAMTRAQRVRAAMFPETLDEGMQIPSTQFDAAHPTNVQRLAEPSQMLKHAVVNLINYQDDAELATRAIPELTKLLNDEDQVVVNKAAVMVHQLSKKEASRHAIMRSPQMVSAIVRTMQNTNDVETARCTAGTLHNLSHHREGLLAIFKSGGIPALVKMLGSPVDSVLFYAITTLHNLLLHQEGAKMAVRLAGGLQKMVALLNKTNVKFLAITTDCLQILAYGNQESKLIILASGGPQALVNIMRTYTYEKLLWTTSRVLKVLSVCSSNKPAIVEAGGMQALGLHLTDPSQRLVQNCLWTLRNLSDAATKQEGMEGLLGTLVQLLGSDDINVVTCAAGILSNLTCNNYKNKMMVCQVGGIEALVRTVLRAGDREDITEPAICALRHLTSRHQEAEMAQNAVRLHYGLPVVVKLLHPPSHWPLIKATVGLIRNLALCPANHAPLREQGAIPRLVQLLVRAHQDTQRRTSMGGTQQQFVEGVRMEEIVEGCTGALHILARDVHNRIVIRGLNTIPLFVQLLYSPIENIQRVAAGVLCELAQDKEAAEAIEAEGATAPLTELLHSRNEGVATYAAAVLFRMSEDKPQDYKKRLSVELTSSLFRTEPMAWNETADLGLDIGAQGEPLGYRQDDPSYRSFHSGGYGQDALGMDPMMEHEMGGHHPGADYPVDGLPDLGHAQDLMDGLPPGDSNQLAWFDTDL
# [2] = CHI Log D procedure; assay type: physicochemical; details: for CHI Log D: pH 7.4; for chromatographic logD: pH 7.4, CHI Log D
# [3] = fluorescence polarization, read-out: beta-Catenin FP IC50
Structure (SMILES),"IC50 [1, 3] [nM]",IC50 ([1]; read-out: FP EC50) [nM],CHI Log D [2],chromatographic logD [2]
"CCCC[C@@H]1NC(=O)[C@H](C)NC(=O)[C@H](CCC(=O)O)NC(=O)[C@H](CC(=O)O)NC(=O)C2(CCCC=CCCCCCC[C@@](C)(C(=O)N[C@@H](Cc3ccccc3)C(=O)N[C@@H](Cc3csc4ccccc34)C(=O)N[C@@H](CCC(N)=O)C(N)=O)NC(=O)[C@H](CCC(N)=O)NC(=O)[C@H](Cc3ccccc3)NC1=O)CCCC=CC[C@]1(CCCN1C(C)=O)C(=O)N[C@@H](CC(=O)O)C(=O)N[C@@H]([C@@H](C)CC)C(=O)N2 (stereo partly drawn) [I-667, Ac-PL3-Asp-Ile-B5-Asp-Glu-Ala-nLeu-Phe-Gln-S8-Phe-BztA-Gln-NH2]",585,585,2.88,
"CC[C@H](C)[C@@H]1NC(=O)C[C@H](C(=O)O)NC(=O)[C@]2(CC=CCCCC3(CCCC=CCCCCCC[C@@](C)(C(=O)N[C@@H](Cc4ccccc4)C(=O)N[C@@H](Cc4csc5ccccc45)C(=O)N[C@@H](CCC(N)=O)C(N)=O)NC(=O)[C@H](CCC(N)=O)NC(=O)[C@H](Cc4ccccc4)NC(=O)[C@H](C)NC(=O)[C@H](C)NC(=O)[C@H](CCC(=O)O)NC(=O)[C@H](CC(=O)O)NC3=O)NC1=O)CCCN2C(C)=O (stereo partly drawn) [I-668, Ac-PL3-isoDAsp-Ile-B5-Asp-Glu-Ala-Ala-Phe-Gln-S8-Phe-BztA-Gln-NH2]",675,675,2.199,
"CC[C@H](C)[C@@H]1NC(=O)C[C@H](C(=O)O)NC(=O)[C@]2(CC=CCCCC3(CCCC=CCCCCCC[C@@](C)(C(=O)N[C@@H](Cc4ccccc4)C(=O)N[C@@H](Cc4csc5ccccc45)C(=O)N[C@@H](CCC(N)=O)C(N)=O)NC(=O)[C@H](CCC(N)=O)NC(=O)[C@H](Cc4ccccc4)NC(=O)[C@H](C)NC(=O)[C@H](C)NC(=O)[C@H](CCC(=O)O)NC(=O)[C@H](CC(=O)O)NC3=O)NC1=O)CCCN2C(C)=O (stereo partly drawn) [I-669, Ac-PL3-isoDAsp-Ile-B5-Asp-Glu-Ala-Ala-Phe-Gln-S8-Phe-BztA-Gln-NH2]",451,451,2.25,
"CC[C@H](C)[C@@H]1NC(=O)[C@H](CC(=O)O)NC(=O)[C@]2(CC=CCCCC3(CCCC=CCCCCCC[C@@](C)(C(=O)N[C@@H](Cc4ccccc4)C(=O)N[C@@H](Cc4csc5ccccc45)C(=O)N[C@@H](CCC(N)=O)C(N)=O)NC(=O)[C@H](CCC(N)=O)NC(=O)[C@H](Cc4ccccc4)NC(=O)[C@H](C)NC(=O)[C@H](C)NC(=O)[C@H](CCC(=O)O)NC(=O)C[C@@H](C(=O)O)NC3=O)NC1=O)CCCN2C(C)=O (stereo partly drawn) [I-673, Ac-PL3-Asp-Ile-B5-isoAsp-Glu-Ala-Ala-Phe-Gln-S8-Phe-BztA-Gln-NH2]",5000,,,1.87
"CC(=O)N1CCC[C@]12CC=CCCCC1(CCCC=CCCCOC(=O)N3CC[C@@](C(=O)N[C@@H](Cc4ccsc4)C(=O)N[C@@H](Cc4csc5ccccc45)C(=O)N[C@@H](Cc4c[nH]cn4)C(N)=O)(C3)NC(=O)[C@H](CC(N)=O)NC(=O)[C@H](Cc3ccccc3)NC(=O)[C@H](C)NC(=O)[C@H](C)NC(=O)[C@H](CC(=O)O)NC(=O)[C@H](CC(=O)O)NC1=O)NC(=O)[C@H](CC(C)(C)C)NC(=O)[C@H](CC(=O)O)NC2=O (stereo partly drawn) [I-695, Ac-PL3-Asp-Npg-B5-Asp-Asp-Ala-Ala-Phe-Asn-PyrS2-3Thi-BztA-His-NH2]",5,,2.117,
"CC[C@H](C)[C@@H]1NC(=O)[C@H](CC(=O)O)NC(=O)[C@]2(CC=CCCCC3(CCCC=CCCCCCC[C@@](C)(C(=O)N[C@@H](Cc4ccsc4)C(=O)N[C@@H](Cc4csc5ccccc45)C(=O)N[C@@H](CCC(N)=O)C(N)=O)NC(=O)[C@H](CC(N)=O)NC(=O)[C@H](Cc4ccccc4)NC(=O)[C@H](C)NC(=O)[C@H](C)NC(=O)[C@H](CN(CC(=O)O)CC(F)(F)F)NC(=O)[C@H](CC(=O)O)NC3=O)NC1=O)CCCN2C(C)=O (stereo partly drawn) [I-700, Ac-PL3-Asp-Ile-B5-Asp-TfeGA-Ala-Ala-Phe-Asn-S8-3Thi-BztA-Gln-NH2]",49,49,2.607,
"CC(=O)N1CCC[C@]12CC=CCCCC1(CCCC=CCCCCCC[C@@](C)(C(=O)N[C@@H](Cc3ccccc3)C(=O)N[C@@H](Cc3csc4ccccc34)C(=O)N[C@@H](CCC(N)=O)C(=O)N[C@@H](C)C(N)=O)NC(=O)[C@H](CC(N)=O)NC(=O)[C@H](Cc3ccccc3)NC(=O)[C@H](C)NC(=O)[C@H](C)NC(=O)[C@H](CCC(=O)O)NC(=O)[C@H](CC(=O)O)NC1=O)NC(=O)[C@H](CC(C)C)NC(=O)[C@H](CC(=O)O)NC2=O (stereo partly drawn) [I-729, Ac-PL3-Asp-Leu-B5-Asp-Glu-Ala-Ala-Phe-Asn-S8-Phe-BztA-Gln-Ala-NH2]",56,56,2.366,
"CC[C@H](C)[C@H](NC(=O)[C@H](CCC(N)=O)NC(=O)[C@H](Cc1csc2ccccc12)NC(=O)[C@H](Cc1ccccc1)NC(=O)[C@]1(C)CCCCCCC=CCCCC2(CCCC=CC[C@]3(CCCN3C(C)=O)C(=O)N[C@@H](CC(=O)O)C(=O)N[C@@H](CC(C)C)C(=O)N2)C(=O)N[C@@H](CC(=O)O)C(=O)N[C@@H](CCC(=O)O)C(=O)N[C@@H](C)C(=O)N[C@@H](C)C(=O)N[C@@H](Cc2ccccc2)C(=O)N[C@@H](CC(N)=O)C(=O)N1)C(N)=O (stereo partly drawn) [I-732, Ac-PL3-Asp-Leu-B5-Asp-Glu-Ala-Ala-Phe-Asn-S8-Phe-BztA-Gln-Ile-NH2]",4220,4220,2.121,
"CC[C@@H](C)[C@@H](NC(=O)[C@H](CCC(N)=O)NC(=O)[C@H](Cc1csc2ccccc12)NC(=O)[C@H](Cc1ccccc1)NC(=O)[C@]1(C)CCCCCCC=CCCCC2(CCCC=CC[C@]3(CCCN3C(C)=O)C(=O)N[C@@H](CC(=O)O)C(=O)N[C@@H](CC(C)C)C(=O)N2)C(=O)N[C@@H](CC(=O)O)C(=O)N[C@@H](CCC(=O)O)C(=O)N[C@@H](C)C(=O)N[C@@H](C)C(=O)N[C@@H](Cc2ccccc2)C(=O)N[C@@H](CC(N)=O)C(=O)N1)C(N)=O (stereo partly drawn) [I-734, Ac-PL3-Asp-Leu-B5-Asp-Glu-Ala-Ala-Phe-Asn-S8-Phe-BztA-Gln-dIle-NH2]",370,370,2.713,

# Further lines, results first:
"IC50 [1, 3] [nM]",IC50 ([1]; read-out: FP EC50) [nM],CHI Log D [2],chromatographic logD [2],Structure (SMILES)
3140,3140,2.25,,"CC[C@H](C)[C@@H]1NC(=O)C[C@H](CC(=O)O)NC(=O)[C@]2(CC=CCCCC3(CCCC=CCCCCCC[C@@](C)(C(=O)N[C@@H](Cc4ccccc4)C(=O)N[C@@H](Cc4csc5ccccc45)C(=O)N[C@@H](CCC(N)=O)C(N)=O)NC(=O)[C@H](CCC(N)=O)NC(=O)[C@H](Cc4ccccc4)NC(=O)[C@H](C)NC(=O)[C@H](C)NC(=O)[C@H](CCC(=O)O)NC(=O)[C@H](CC(=O)O)NC3=O)NC1=O)CCCN2C(C)=O (stereo partly drawn) [I-671, Ac-PL3-RbGlu-Ile-B5-Asp-Glu-Ala-Ala-Phe-Gln-S8-Phe-BztA-Gln-NH2]"
5000,,,1.9,"CC[C@H](C)[C@@H]1NC(=O)C[C@@H](CC(=O)O)NC(=O)[C@]2(CC=CCCCC3(CCCC=CCCCCCC[C@@](C)(C(=O)N[C@@H](Cc4ccccc4)C(=O)N[C@@H](Cc4csc5ccccc45)C(=O)N[C@@H](CCC(N)=O)C(N)=O)NC(=O)[C@H](CCC(N)=O)NC(=O)[C@H](Cc4ccccc4)NC(=O)[C@H](C)NC(=O)[C@H](C)NC(=O)[C@H](CCC(=O)O)NC(=O)[C@H](CC(=O)O)NC3=O)NC1=O)CCCN2C(C)=O (stereo partly drawn) [I-672, Ac-PL3-SbGlu-Ile-B5-Asp-Glu-Ala-Ala-Phe-Gln-S8-Phe-BztA-Gln-NH2]"
5000,,,1.95,"CC[C@H](C)[C@@H]1NC(=O)[C@H](CC(=O)O)NC(=O)[C@]2(CC=CCCCC3(CCCC=CCCCCCC[C@@](C)(C(=O)N[C@@H](Cc4ccccc4)C(=O)N[C@@H](Cc4csc5ccccc45)C(=O)N[C@@H](CCC(N)=O)C(N)=O)NC(=O)[C@H](CCC(N)=O)NC(=O)[C@H](Cc4ccccc4)NC(=O)[C@H](C)NC(=O)[C@H](C)NC(=O)[C@H](CCC(=O)O)NC(=O)C[C@H](C(=O)O)NC3=O)NC1=O)CCCN2C(C)=O (stereo partly drawn) [I-674, Ac-PL3-Asp-Ile-B5-isoDAsp-Glu-Ala-Ala-Phe-Gln-S8-Phe-BztA-Gln-NH2]"
4520,,,2.13,"CC[C@H](C)[C@@H]1NC(=O)[C@H](CC(=O)O)NC(=O)[C@]2(CC=CCCCC3(CCCC=CCCCCCC[C@@](C)(C(=O)N[C@@H](Cc4ccccc4)C(=O)N[C@@H](Cc4csc5ccccc45)C(=O)N[C@@H](CCC(N)=O)C(N)=O)NC(=O)[C@H](CCC(N)=O)NC(=O)[C@H](Cc4ccccc4)NC(=O)[C@H](C)NC(=O)[C@H](C)NC(=O)[C@H](CCC(=O)O)NC(=O)C[C@H](CC(=O)O)NC3=O)NC1=O)CCCN2C(C)=O (stereo partly drawn) [I-675, Ac-PL3-Asp-Ile-B5-RbGlu-Glu-Ala-Ala-Phe-Gln-S8-Phe-BztA-Gln-NH2]"
5000,,,2.29,"CC[C@H](C)[C@@H]1NC(=O)[C@H](CC(=O)O)NC(=O)[C@]2(CC=CCCCC3(CCCC=CCCCCCC[C@@](C)(C(=O)N[C@@H](Cc4ccccc4)C(=O)N[C@@H](Cc4csc5ccccc45)C(=O)N[C@@H](CCC(N)=O)C(N)=O)NC(=O)[C@H](CCC(N)=O)NC(=O)[C@H](Cc4ccccc4)NC(=O)[C@H](C)NC(=O)[C@H](C)NC(=O)[C@H](CCC(=O)O)NC(=O)C[C@@H](CC(=O)O)NC3=O)NC1=O)CCCN2C(C)=O (stereo partly drawn) [I-676, Ac-PL3-Asp-Ile-B5-SbGlu-Glu-Ala-Ala-Phe-Gln-S8-Phe-BztA-Gln-NH2]"
